Columns and labels:
[1] = system: TNF-α secretion in THP-1 cell line; test: Cytokine bioassay: TNF-α secretion by LPS-stimulated THP-1 cells (L-929 indicator cells); assay type: cell-based; details: 100 mM DMG, 24 h, measured by L-929 cells (FIG. 2)
Method: (§1) Cytokine bioassays utilizing cell proliferation assays were performed to assess modulation of inflammatory cytokine production by DMG (House-Development in biological Standardization 1999 (97) 13-19). Supernatants from cytokine producing cell lines (untreated control and DMG treated), were added to responder cell lines specific for that cytokine. Proliferation or inhibition of these responder/indicator cells signal the extent of cytokine secreted by the producer cell lines. The optimum cell number/well for each cell line was determined after a titration assay. All suspension producer cell lines such at THP-1, Jurkat E6-1, EL-4 and U-937 were plated on 48 well plates in a concentration of 5×10^6 cells/well, where as adherent producer cells such as LS174T were plated at a concentration of 5×10^5 cells/well. Suspension responder cell lines (CTLL-2 and 7TD-1) were used at a concentration of 1×10^6 cells/well in a 96 well plate, whereas the adherent responder cell lines (L-929 and A375.S2) were plated at a concentration of 3×10^4 cells/well and 4×10^4 cells/well respectively. THP-1 cells, which secrete Tumor Necrosis Factor-alpha (TNF-α), when stimulated with lipopolysaccharide (LPS), were treated with increasing concentrations of DMG for a period of 24 hours at 37° C. in a humidified 5% CO2 incubator. […] Samples are read at 4 hours using a BIO-RAD benchmark microplate reader at 490 nm. […]

[2] = system: IL-1 secretion in U-937 cell line; test: Cytokine bioassay: IL-1 secretion by U-937 cells (A375.S2 indicator cells); assay type: cell-based; details: detected by decreased proliferation of A375.S2 (FIG. 3)
Method: as §1

[3] = system: IL-2 secretion in Jurkat E6-1 cell line; test: Cytokine bioassay: IL-2 secretion by Jurkat E6-1 cells (CTLL-2 responder cells); assay type: cell-based, human
Method: as §1

[4] = system: IL-2 secretion in EL-4 cell line; test: Cytokine bioassay: IL-2 secretion by EL-4 cells (CTLL-2 responder cells); assay type: cell-based, mouse
Method: as §1

[5] = system: IL-6 secretion in LS 174T cell line; test: Cytokine bioassay: IL-6 secretion by LS 174T cells (7TD1 responder cells); assay type: cell-based; details: 100 mM DMG, LS 174T (FIG. 6)
Method: as §1

[6] = system: TNF alpha secretion in peripheral blood mononuclear cells; test: Cytokine bioassay: TNF-α secretion by stimulated PBMC (L-929 indicator cells); assay type: cell-based; details: 100 mM DMG, PBMC stimulated with PMA and Ionomycin; L-929 indicator cells (FIG. 7)
Method: (§2) Heparinized peripheral blood from healthy control volunteers was collected and layered onto room temperature (RT) polysucrose sodium diatriazoate (Histopaque 1077, Sigma Chemical Co.) in 15-ml conical tubes. These were centrifuged at 400×g for 30 minutes. Mononuclear cells were collected and washed in 10-ml phosphate buffered saline (PBS). Following a 10 min centrifugation and 250×g, the PBS were decanted and the wash step repeated. Cells were counted in a hemocytometer and adjusted to 2×10^6 cells/ml. These cells were later used in cytokine bioassays, Co-culture and in flow cytometry. Modulation of inflammatory cytokine production in Peripheral Blood Mononuclear Cells (PBMC) by DMG, was determined by the use of cytokine bioassays. Supernatants of DMG treated and untreated PBMC which produce cytokines (producers) on stimulation with mitogens (PMA and/or lonomycin), were added to responder cell lines specific for the respective cytokine. Proliferation or inhibition of these indicator cells signal the extent of cytokine secretion by the producer cell lines. The optimum cell number/well for each cell line was determined after a titration assay. PBMC were plated on 48 well plates in a concentration of 5×10^6 cells/well. […] Samples are read at 4 hours using a BIO-RAD benchmark microplate reader at 490 nm. […]

[7] = system: IL-1 secretion in peripheral blood mononuclear cells; test: Cytokine bioassay: IL-1 secretion by stimulated PBMC (A375.S2 responder cells); assay type: cell-based; details: 100 mM DMG
Method: as §2

[8] = system: IL-2 secretion in peripheral blood mononuclear cells; test: Cytokine bioassay: IL-2 secretion by stimulated PBMC (HT-2 responder cells); assay type: cell-based; details: 100 mM DMG
Method: as §2

[9] = system: melanoma cells; test: Co-culture proliferation assay: DMG treated stimulated Jurkat E6-1 with melanoma cells; assay type: cell-based; details: PMA/Ionomycin stimulated Jurkat E6-1 in co-culture
Method: (§3) A proliferation assay was designed to determine the ability of DMG treated cytokine producing cells to inhibit growth of melanoma cell lines, breast cancer cell lines, a prostate cancer cell line, and cervical cancer cell lines. The cytokine bioassays utilizing cell proliferation assays were performed to assess modulation of inflammatory cytokine production by DMG. Cytokine bioassays are well known in the art. (Thorpe R: Developments in Biological Standardization 1999, 97:61-71 and Mire-Sluis AR: Journal of Immunological Methods 1995, 187 (2):191-199)
(§4) The cell lines and murine B16 as indicator cells were used to observe the modulating effects of DMG. The optimum cell number per well for each cell line was determined after titration assay. Stimulated and unstimulated cytokine producing cell lines (Jurkat e6-1, EL-4, MG-63 and U-937) were treated with DMG for 24 hours prior to culture with cancer cell lines. […]
(§5) A proliferation assay was designed to determine the ability of DMG treated cytokine producing cells to inhibit growth of human breast cancer cell lines MCF-7, BT-20 and T47D, human prostrate cancer PC-3 cell line, human cervical cancer Caski and SiHa cell lines and melanoma cell lines. […] The optimum cell number/well for each cell line was determined after a titration assay. […]

[10] = system: A375.S2 melanoma cells; test: Co-culture proliferation assay: DMG treated U-937 with A375.S2 melanoma cells; assay type: cell-based, human; details: DMG treated U-937 in co-culture
Method: as §3, §4, §5

[11] = system: melanoma cells; test: Co-culture proliferation assay: DMG treated stimulated MG-63 with melanoma cells; assay type: cell-based; details: DMG treated stimulated MG-63 (produces IFN-β) in co-culture
Method: as §3, §4, §5

[12] = system: A375.S2 melanoma cells; test: Co-culture proliferation assay: DMG treated PBMC with A375.S2 melanoma cells; assay type: cell-based, human
Method: (§6) Heparinized peripheral blood from healthy control volunteers was collected and layered onto room temperature (RT) polysucrose sodium diatriazoate (Histopaque 1077, Sigma Chemical Co.) in 15-ml conical tubes. These were centrifuged at 400×g for 30 minutes. Mononuclear cells were collected and washed in 10-ml phosphate buffered saline (PBS). Following a 10 min centrifugation and 250×g, the PBS were decanted and the wash step repeated. Cells were counted in a hemocytometer and adjusted to 2×10^6 cells/ml. These cells were later used in cytokine bioassays, Co-culture and in flow cytometry.
(§7) A proliferation assay was designed to determine the ability of DMG treated cytokine producing cells to inhibit growth of human breast cancer cell lines MCF-7, BT-20 and T47D, human prostrate cancer PC-3 cell line, human cervical cancer Caski and SiHa cell lines and melanoma cell lines. Three melanoma cell lines, human A375.S2 and Hs 294T, and murine B16 as indicator cells were used to observe the modulating effects of DMG. The optimum cell number/well for each cell line was determined after a titration assay. Stimulated and unstimulated cytokine producing cell lines (Jurkat E6-1, EL-4, MG-63 and U-937) were treated with DMG for 24 hr prior to culture with melanoma cells. Similarly, PBMC were also treated with DMG and cultured with melanoma cells. […]

[13] = system: Hs 294T melanoma cells; test: Co-culture proliferation assay: DMG treated PBMC with Hs 294T melanoma cells; assay type: cell-based; details: Homo sapiens; PBMC treated with 100 mM DMG, Hs 294T co-culture (FIG. 14); read-out: inhibitory effect over controls (melanoma inhibition by PBMC)
Method: as §6, §7

[14] = system: T47D breast cancer cell line; test: Co-culture proliferation assay: DMG treated Jurkat E6-1 with T47D breast cancer cells; assay type: cell-based, human; details: Jurkat E6-1 treated with DMG 24 hours prior to culture (FIG. 18)
Method: as §3, §4, §5

[15] = system: MCF-7 breast cancer cells; test: Co-culture proliferation assay: DMG treated Jurkat E6-1 with MCF-7 breast cancer cells; assay type: cell-based, human; details: Jurkat E6-1 treated with DMG 24 hours prior to culture (FIG. 17)
Method: as §3, §4, §5

[16] = system: MCF-7 breast cancer cell line; test: Co-culture proliferation assay: DMG treated stimulated PBMC with MCF-7 cells; assay type: cell-based, human; details: DMG treated stimulated PBMC in co-culture (FIG. 19)
Method: as §6, §7

[17] = system: T47D breast cancer cell line; test: Co-culture proliferation assay: DMG treated stimulated PBMC with T47D cells; assay type: cell-based, human; details: DMG treated stimulated PBMC in co-culture (FIG. 20)
Method: as §6, §7

[18] = system: Caski human cervical carcinoma cells; test: Co-culture proliferation assay: DMG treated Jurkat E6-1 with Caski cervical cells; assay type: cell-based; details: Jurkat E6-1 treated with DMG 24 hours prior to culture (FIG. 22-23)
Method: as §3, §4, §5

[19] = system: SiHa human cervical carcinoma cells; test: Co-culture proliferation assay: DMG treated Jurkat E6-1 with SiHa cervical cells; assay type: cell-based; details: Jurkat E6-1 treated with DMG 24 hours prior to culture (FIG. 24-25)
Method: as §3, §4, §5

[20] = system: prostate adenocarcinoma cell line PC-3; test: Co-culture proliferation assay: DMG treated stimulated PBMC with PC-3 prostate cells; assay type: cell-based, human; details: DMG treated stimulated PBMC in co-culture (FIG. 26)
Method: as §6, §7

Q: With `CN(C)CC(=O)O` [DMG, N,N-dimethylglycine] as the compound, how does the “increase of TNF-α levels over baseline control levels” value [1] read?
A: Its value is 7%.

Q: And the “increase of IL-1 secretion” value ([2]; 10 mM DMG)?
A: Its value is 4.5%.

Q: What about the “increase of IL-1 secretion” value ([2]; 100 mM DMG) of the same compound?
A: The value was 6.5%.

Q: And the “increase of IL-2 secretion” value ([3]; 10 mM DMG, Jurkat E6-1 (FIG. 4))?
A: The value was 3%.

Q: What about the “increase of IL-2 levels (increase in proliferation of CTLL-2)” value ([3]; 100 mM DMG, Jurkat E6-1 supernatant (FIG. 4)) of the same compound?
A: Its value is 10%.

Q: And the “increase of IL-2 secretion” value ([4]; 10 mM DMG, EL-4 (FIG. 5))?
A: The value was 2.5%.

Q: And the “increase of IL-2 levels (increase in proliferation of CTLL-2)” value ([4]; 100 mM DMG, EL-4 supernatant (FIG. 5))?
A: The value was 6%.

Q: What about the “increase of IL-6 production levels” value [5] of the same compound?
A: Its value is 7%.

Q: What about the “increase of TNF-α over stimulated baseline controls” value [6] of the same compound?
A: The value was 9%.

Q: And the “enhancement of IL-1 expression levels” value [7]?
A: Its value is 8%.

Q: What about the “enhancement of IL-2 expression levels” value [8] of the same compound?
A: Its value is 10%.

Q: What about the “increased inhibition of melanoma cells over baseline stimulated control” value [9] of the same compound?
A: The value was 8%.

Q: And the “decrease in the proliferation of A375.S2 cells” value [10]?
A: Its value is 30%.

Q: What about the melanoma inhibition [11] of the same compound?
A: The melanoma inhibition was “increased level of melanoma inhibition”.

Q: And the “proliferation decrease in melanoma cell growth over stimulated baseline control” value ([12]; PBMC treated with 100 mM DMG, A375.S2 co-culture)?
A: The value was 17%.

Q: And the “A375.S2 proliferation, dose dependence” value ([12]; PBMC treated with increasing concentrations of DMG)?
A: Its value is “Significant dose dependent reductions”.

Q: And the inhibition at 100000 µM [13]?
A: Its inhibition at 100000 µM is 13%.

Q: What about the “inhibition of T47D cells” value [14] of the same compound?
A: Its value is “typical dose dependent effect”.

Q: What about the “inhibition of MCF-7 cells” value [15] of the same compound?
A: Its value is “dose dependent effect”.

Q: What about the “inhibition of MCF-7 cell line” value [16] of the same compound?
A: Its value is “dose response inhibition”.

Q: And the “inhibition of T47D cell line” value [17]?
A: Its value is “dose response inhibition”.

Q: What about the “inhibition of Caski cell line” value [18] of the same compound?
A: Its value is “dose response inhibition”.

Q: What about the “inhibition of SiHa cell line” value [19] of the same compound?
A: The value was “dose response inhibition”.

Q: And the “inhibition of PC-3 cell line” value [20]?
A: The value was “dose response inhibition”.

Reference: patent publication US20060183801A1, “Method of preventing or treating breast, prostate and/or cervical cancer with n, n-dimethylglycine” (FoodScience Corporation, priority 2002, published 2006)
